Measurements as given in PMC10850145, “Hormonal steroids induce multidrug resistance and stress response genes in Neisseria gonorrhoeae by binding to MtrR” (Nature Communications, 2024).
“And” between values parts separate entries of the source, which are not always exact repeats. Identical values can stand only once. Like-named read-outs stand apart in the source and are kept apart here.

What was measured:
MtrR = target: T1, MtrR (Neisseria gonorrhoeae, UniProt P39897); assay: Isothermal titration calorimetry, ligand binding to MtrR WT; settings: ITC
T1 construct: Hexa-histidine tag with TEV protease cleavage site (N, cleaved yes); made in house; host or cells: E. coli Rosetta Gami B(DE3) pLysS

MtrR R176E = target: T2, MtrR R176E (Neisseria gonorrhoeae, UniProt P39897, R176E); assay: biochemical; assay type: binding
T2 construct: Hexa-histidine tag with TEV protease cleavage site (N, cleaved yes); made in house; host or cells: E. coli Rosetta Gami B(DE3) pLysS

MtrR D171A = target: T3, MtrR D171A (Neisseria gonorrhoeae, UniProt P39897, D171A); assay: biochemical; assay type: binding; settings: ITC
T3 construct: Hexa-histidine tag with TEV protease cleavage site (N, cleaved yes); made in house; host or cells: E. coli Rosetta Gami B(DE3) pLysS

[1] = target: T4, MtrR binding to mtrCDE operator (21mer) (Neisseria gonorrhoeae, UniProt P39897); assay: Fluorescence polarization based DNA binding assay, mtrCDE operator; settings: mtrCDE 21mer + 125 µM steroid
T4 construct: Hexa-histidine tag with TEV protease cleavage site (N, cleaved yes); made in house; host or cells: E. coli Rosetta Gami B(DE3) pLysS
Procedure: Fluorescence polarization based-DNA binding data were collected using a Panvera Beacon 2000 fluorescence polarization system (Invitrogen) and analyzed with Prism (Graphpad Software 9, 10). Purified MtrR was buffer exchanged into “DNA” binding buffer (150 mM NaCl, 20 mM Tris-HCl pH 7.5, 2.5% glycerol, 1 mM TCEP). […] The reported oligoduplexes containing the rpoH and mtrCDE binding site differ in lengths, 27mer and 21mer, respectively[17],[21]. […] BSA and dI-dC are included as carriers and to control for nonspecific DNA binding. Samples were excited at 490 nm and polarized emissions measured at 530 nm. Controls were run with no protein (DNA ± methanol, hormonal steroids) to ensure that millipolarization values were not affected by experimental conditions alone. The binding affinity of protein for DNA was determined using the following equation: P = Pf + (Pb – Pf) [M] / (Kd + [M]) where P is the measured polarization, Pf is the polarization of free DNA, Pb is the polarization of the completely bound DNA, Kd is the equilibrium dissociation constant, and M is the concentration of protein. Pb and Kd were determined by nonlinear least-squares analysis. At least three independent experimental measurements were averaged for each reported binding constant.

gonococcal strain FA19 = assay: MIC of steroidal hormones on GC agar, strain FA19; assay type: cell-based; settings: Neisseria gonorrhoeae
Procedure: (§1) To determine the minimal inhibitory concentrations (MICs) by the steroidal hormones and their effect on antimicrobial susceptibility, 5 x 10^5 CFU and 1:5 serial dilutions of gonococcal strains were spotted on GC agar plates containing different concentrations of antibiotics and/or hormones as indicated. Antimicrobial susceptibility was assessed after 24 h incubation.
(§2) Table S1. Steroidal hormones are substrates of the MtrCDE efflux pump
(§3) Progesterone Testosterone
(§4) *Minimal inhibition concentration is defined by the lowest concentration at which visible growth is […]

FA19 mtrD::kan (KH14) = assay: MIC of steroidal hormones on GC agar, FA19 mtrD::kan (KH14); assay type: cell-based, Neisseria gonorrhoeae
Procedure: as §1, §2, §3, §4

rpoH-lacZ expression = assay type: cell-based, Neisseria gonorrhoeae
N. gonorrhoeae = system: N. gonorrhoeae; design: method as in PMID 816438; settings: cited from earlier work
[2] = rpoH-lacZ, ΔmtrR + mtrR D171A in trans, 6.25 µM hormone, single replicate
[3] = rpoH-lacZ, ΔmtrR + mtrR D171A in trans, 12.5 µM hormone, single replicate
[4] = rpoH-lacZ, ΔmtrR + mtrR D171A in trans, 25 µM hormone, single replicate
[5] = rpoH-lacZ, ΔmtrR + mtrR D171A in trans, 50 µM hormone, single replicate

T1 sequence (P39897 whole entry): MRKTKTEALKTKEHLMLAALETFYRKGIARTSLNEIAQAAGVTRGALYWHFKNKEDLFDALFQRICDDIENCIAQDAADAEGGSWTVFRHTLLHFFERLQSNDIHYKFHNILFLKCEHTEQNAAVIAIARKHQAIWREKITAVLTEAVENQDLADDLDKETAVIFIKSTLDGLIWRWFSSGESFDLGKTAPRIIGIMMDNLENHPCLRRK
T4 sequence (P39897 whole entry): as above
T2 sequence (P39897 whole entry R176E): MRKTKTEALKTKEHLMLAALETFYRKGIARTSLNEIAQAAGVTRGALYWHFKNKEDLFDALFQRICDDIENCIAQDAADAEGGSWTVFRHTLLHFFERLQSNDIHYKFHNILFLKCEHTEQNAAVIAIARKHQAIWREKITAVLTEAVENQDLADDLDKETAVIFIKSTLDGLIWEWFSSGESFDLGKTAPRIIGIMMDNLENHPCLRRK
T3 sequence (P39897 whole entry D171A): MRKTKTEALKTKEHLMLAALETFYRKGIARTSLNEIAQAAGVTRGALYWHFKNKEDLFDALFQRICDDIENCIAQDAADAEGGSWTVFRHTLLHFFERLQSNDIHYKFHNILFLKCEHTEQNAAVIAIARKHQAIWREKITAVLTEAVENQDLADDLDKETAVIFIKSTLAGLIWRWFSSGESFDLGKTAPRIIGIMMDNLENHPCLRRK

What does the source list for `C[C@]12CC[C@@H]3c4ccc(O)cc4CC[C@H]3[C@@H]1CC[C@@H]2O` [β-Estradiol, β-estradiol]?
binding stoichiometry N (ligand per MtrR) (MtrR): ~ 1; Kd (MtrR; 25 °C, 1% MeOH, read-out: equilibrium dissociation constant (Kd), MtrR WT): 1670 nM and ~1670 nM; binding stoichiometry N (ligand per MtrR) (MtrR; listed as EST): one molecule of steroid per MtrR monomer; Kd (MtrR R176E): 720 ± 150 nM; binding to MtrR D171A (MtrR D171A): no observable binding; fluorescence polarization, MtrR titration ([1]; MtrR WT dimer 0.00 nM): 0.00 mP; fluorescence polarization, MtrR titration ([1]; MtrR WT dimer 6.35 nM): 4.51 mP and 6.27 mP and 3.99 mP; fluorescence polarization, MtrR titration ([1]; MtrR WT dimer 11.32 nM): 5.41 mP and 7.10 mP and 5.13 mP; fluorescence polarization, MtrR titration ([1]; MtrR WT dimer 16.21 nM): 7.14 mP and 8.80 mP and 6.33 mP; fluorescence polarization, MtrR titration ([1]; MtrR WT dimer 35.50 nM): 8.94 mP and 8.19 mP; fluorescence polarization, MtrR titration ([1]; MtrR WT dimer 73.35 nM): 10.97 mP and 13.97 mP and 11.09 mP; fluorescence polarization, MtrR titration ([1]; MtrR WT dimer 110.67 nM): 13.61 mP and 15.83 mP and 13.69 mP; fluorescence polarization, MtrR titration ([1]; MtrR WT dimer 147.65 nM): 16.87 mP and 18.60 mP and 16.09 mP; fluorescence polarization, MtrR titration ([1]; MtrR WT dimer 220.59 nM): 20.11 mP and 24.13 mP and 19.63 mP; fluorescence polarization, MtrR titration ([1]; MtrR WT dimer 292.55 nM): 24.17 mP and 25.77 mP and 23.16 mP; fluorescence polarization, MtrR titration ([1]; MtrR WT dimer 363.86 nM): 26.44 mP and 29.33 mP and 25.99 mP; fluorescence polarization, MtrR titration ([1]; MtrR WT dimer 434.54 nM): 30.01 mP and 30.57 mP and 27.99 mP; fluorescence polarization, MtrR titration ([1]; MtrR WT dimer 504.61 nM): 31.07 mP and 33.77 mP and 30.59 mP; fluorescence polarization, MtrR titration ([1]; MtrR WT dimer 574.07 nM): 34.21 mP and 36.80 mP and 32.93 mP; fluorescence polarization, MtrR titration ([1]; MtrR WT dimer 711.46 nM): 37.61 mP and 38.13 mP and 35.23 mP; fluorescence polarization, MtrR titration ([1]; MtrR WT dimer 848.00 nM): 39.37 mP and 41.63 mP and 41.06 mP; MIC (gonococcal strain FA19; FA19, 24 h): > 1180 µM; MIC (gonococcal strain FA19; strain FA19, GC agar, read-out: MIC): > 320 µg/mL; MIC (FA19 mtrD::kan (KH14); Neisseria gonorrhoeae): 320 µg/mL and 1180 µM; effect of mtrD deletion on MIC (FA19 mtrD::kan (KH14); vs FA19): lowered; Miller units, Mean (rpoH-lacZ expression; Mean of plate rows 5-8, plate columns 1-6 (first strain), 6.25 µM hormone): 42 Miller units; Miller units, Mean (rpoH-lacZ expression; Mean of plate rows 5-8, plate columns 1-6 (first strain), 12.5 µM hormone): 61 Miller units; Miller units, Mean (rpoH-lacZ expression; Mean of plate rows 5-8, plate columns 1-6 (first strain), 25 µM hormone): 70 Miller units; Miller units, Mean (rpoH-lacZ expression; Mean of plate rows 5-8, plate columns 1-6 (first strain), 50 µM hormone): 78 Miller units; Miller units, Mean (rpoH-lacZ expression; Mean of plate rows 5-8, plate columns 7-12 (second strain), 6.25 µM hormone): 73.6 Miller units; Miller units, Mean (rpoH-lacZ expression; Mean of plate rows 5-8, plate columns 7-12 (second strain), 12.5 µM hormone): 75.3 Miller units; Miller units, Mean (rpoH-lacZ expression; Mean of plate rows 5-8, plate columns 7-12 (second strain), 25 µM hormone): 76.5 Miller units; Miller units, Mean (rpoH-lacZ expression; Mean of plate rows 5-8, plate columns 7-12 (second strain), 50 µM hormone): 79.6 Miller units; induction of rpoH expression (rpoH-lacZ expression; complemented (MtrR+) strains, increasing hormone): could be induced; induction of rpoH expression (rpoH-lacZ expression; loss of MtrR or MtrR-D171A strain): abrogated; Miller units (rpoH-lacZ expression; [2]): 73 Miller units; β-galactosidase activity (Miller units) (rpoH-lacZ expression; [2]): 64 Miller units and 67 Miller units and 90 Miller units; Miller units (rpoH-lacZ expression; [3]): 67 Miller units; β-galactosidase activity (Miller units) (rpoH-lacZ expression; [3]): 68 Miller units and 72 Miller units and 94 Miller units; Miller units (rpoH-lacZ expression; [4]): 76 Miller units; β-galactosidase activity (Miller units) (rpoH-lacZ expression; [4]): 84 Miller units and 81 Miller units and 65 Miller units; Miller units (rpoH-lacZ expression; [5]): 82 Miller units; β-galactosidase activity (Miller units) (rpoH-lacZ expression; [5]): 80 Miller units and 76 Miller units; β-galactosidase activity (Miller units) (rpoH-lacZ expression; rpoH-lacZ, ΔmtrR + mtrR WT in trans, 6.25 µM hormone, single replicate): 29 Miller units and 43 Miller units and 45 Miller units and 49 Miller units; β-galactosidase activity (Miller units) (rpoH-lacZ expression; rpoH-lacZ, ΔmtrR + mtrR WT in trans, 12.5 µM hormone, single replicate): 60 Miller units and 54 Miller units and 64 Miller units and 67 Miller units; β-galactosidase activity (Miller units) (rpoH-lacZ expression; rpoH-lacZ, ΔmtrR + mtrR WT in trans, 25 µM hormone, single replicate): 91 Miller units and 57 Miller units and 68 Miller units and 64 Miller units; β-galactosidase activity (Miller units) (rpoH-lacZ expression; rpoH-lacZ, ΔmtrR + mtrR WT in trans, 50 µM hormone, single replicate): 89 Miller units and 63 Miller units and 78 Miller units and 82 Miller units; β-galactosidase activity (Miller units) (rpoH-lacZ expression; rpoH-lacZ, ΔmtrR strain, 6.25 µM hormone, single replicate): 253 Miller units and 160 Miller units and 91 Miller units; β-galactosidase activity (Miller units) (rpoH-lacZ expression; rpoH-lacZ, ΔmtrR strain, 12.5 µM hormone, single replicate): 161 Miller units and 99 Miller units; β-galactosidase activity (Miller units) (rpoH-lacZ expression; rpoH-lacZ, ΔmtrR strain, 25 µM hormone, single replicate): 232 Miller units and 156 Miller units and 133 Miller units; β-galactosidase activity (Miller units) (rpoH-lacZ expression; rpoH-lacZ, ΔmtrR strain, 50 µM hormone, single replicate): 195 Miller units and 151 Miller units and 114 Miller units; Miller units (rpoH-lacZ expression; rpoH-lacZ, ΔmtrR, 6.25 µM hormone, single replicate): 150 Miller units; Miller units (rpoH-lacZ expression; rpoH-lacZ, ΔmtrR, 12.5 µM hormone, single replicate): 165 Miller units; Miller units (rpoH-lacZ expression; rpoH-lacZ, ΔmtrR, 25 µM hormone, single replicate): 177 Miller units; Miller units (rpoH-lacZ expression; rpoH-lacZ, ΔmtrR, 50 µM hormone, single replicate): 178 Miller units; Miller units (rpoH-lacZ expression; single well, plate rows 5-8, plate columns 1-6 (first strain), 6.25 µM hormone): 29 Miller units and 43 Miller units and 45 Miller units and 49 Miller units; Miller units (rpoH-lacZ expression; single well, plate rows 5-8, plate columns 1-6 (first strain), 12.5 µM hormone): 60 Miller units and 54 Miller units and 64 Miller units and 67 Miller units; Miller units (rpoH-lacZ expression; single well, plate rows 5-8, plate columns 1-6 (first strain), 25 µM hormone): 91 Miller units and 57 Miller units and 68 Miller units and 64 Miller units; Miller units (rpoH-lacZ expression; single well, plate rows 5-8, plate columns 1-6 (first strain), 50 µM hormone): 89 Miller units and 63 Miller units and 78 Miller units and 82 Miller units; Miller units (rpoH-lacZ expression; single well, plate rows 5-8, plate columns 7-12 (second strain), 6.25 µM hormone): 64 Miller units and 67 Miller units and 73 Miller units and 90 Miller units; Miller units (rpoH-lacZ expression; single well, plate rows 5-8, plate columns 7-12 (second strain), 12.5 µM hormone): 68 Miller units and 72 Miller units and 67 Miller units and 94 Miller units; Miller units (rpoH-lacZ expression; single well, plate rows 5-8, plate columns 7-12 (second strain), 25 µM hormone): 84 Miller units and 81 Miller units and 76 Miller units and 65 Miller units; Miller units (rpoH-lacZ expression; single well, plate rows 5-8, plate columns 7-12 (second strain), 50 µM hormone): 80 Miller units and 82 Miller units and 76 Miller units; β-galactosidase activity, rpoH-lacZ, Mean (rpoH-lacZ expression; strain WT (FA19/pLES94-rpoH), hormone 6.25 µM): 83 Miller units; β-galactosidase activity, rpoH-lacZ, Mean (rpoH-lacZ expression; strain WT (FA19/pLES94-rpoH), hormone 12.5 µM): 113 Miller units; β-galactosidase activity, rpoH-lacZ, Mean (rpoH-lacZ expression; strain WT (FA19/pLES94-rpoH), hormone 25 µM): 148 Miller units; β-galactosidase activity, rpoH-lacZ, Mean (rpoH-lacZ expression; strain WT (FA19/pLES94-rpoH), hormone 50 µM): 162 Miller units; activation of rpoH (rpoH-lacZ expression; strain producing MtrR R176E): clearly weaker activation; β-galactosidase activity, rpoH-lacZ, Mean (rpoH-lacZ expression; strain ΔmtrR (FA19 ∆mtrR/pLES94-rpoH), hormone 6.25 µM): 163 Miller units; β-galactosidase activity, rpoH-lacZ, Mean (rpoH-lacZ expression; strain ΔmtrR (FA19 ∆mtrR/pLES94-rpoH), hormone 12.5 µM): 152 Miller units; β-galactosidase activity, rpoH-lacZ, Mean (rpoH-lacZ expression; strain ΔmtrR (FA19 ∆mtrR/pLES94-rpoH), hormone 25 µM): 175 Miller units; β-galactosidase activity, rpoH-lacZ, Mean (rpoH-lacZ expression; strain ΔmtrR (FA19 ∆mtrR/pLES94-rpoH), hormone 50 µM): 160 Miller units; β-galactosidase activity, rpoH-lacZ, Mean (rpoH-lacZ expression; strain ΔmtrR + mtrR D171A (pGCC3-mtrR D171A), hormone 6.25 µM): 74 Miller units; β-galactosidase activity, rpoH-lacZ, Mean (rpoH-lacZ expression; strain ΔmtrR + mtrR D171A (pGCC3-mtrR D171A), hormone 12.5 µM): 75 Miller units; β-galactosidase activity, rpoH-lacZ, Mean (rpoH-lacZ expression; strain ΔmtrR + mtrR D171A (pGCC3-mtrR D171A), hormone 25 µM): 76 Miller units; β-galactosidase activity, rpoH-lacZ, Mean (rpoH-lacZ expression; strain ΔmtrR + mtrR D171A (pGCC3-mtrR D171A), hormone 50 µM): 80 Miller units; β-galactosidase activity, rpoH-lacZ, Mean (rpoH-lacZ expression; strain ΔmtrR + mtrR WT (pGCC3-mtrR), hormone 6.25 µM): 42 Miller units; β-galactosidase activity, rpoH-lacZ, Mean (rpoH-lacZ expression; strain ΔmtrR + mtrR WT (pGCC3-mtrR), hormone 12.5 µM): 61 Miller units; β-galactosidase activity, rpoH-lacZ, Mean (rpoH-lacZ expression; strain ΔmtrR + mtrR WT (pGCC3-mtrR), hormone 25 µM): 70 Miller units; β-galactosidase activity, rpoH-lacZ, Mean (rpoH-lacZ expression; strain ΔmtrR + mtrR WT (pGCC3-mtrR), hormone 50 µM): 78 Miller units; growth inhibition of N. gonorrhoeae (N. gonorrhoeae): arrest N. gonorrhoeae growth
